According to PMC6731281, “Production of zosteric acid and other sulfated phenolic biochemicals in microbial cell factories” (Nature Communications, 2019):

Columns and labels:
Type in all cases: cell-based
[1] = molecular target: T1, SULT1A1Rno (Rattus norvegicus, UniProt P17988); test: HPLC of supernatant of E. coli expressing the enzyme; product zosteric acid matched synthetic standard; conditions: intracellular PAPS as donor; 100 µM substrate in screen; M9, 37 °C, 24 h
T1 construct: gene Sult1a1; codon-optimized synthetic gene in pETDuet-1, expressed in E. coli KRX or BL21(DE3) (also in S. cerevisiae); whole growing cells
T1 sequence (P17988 whole entry): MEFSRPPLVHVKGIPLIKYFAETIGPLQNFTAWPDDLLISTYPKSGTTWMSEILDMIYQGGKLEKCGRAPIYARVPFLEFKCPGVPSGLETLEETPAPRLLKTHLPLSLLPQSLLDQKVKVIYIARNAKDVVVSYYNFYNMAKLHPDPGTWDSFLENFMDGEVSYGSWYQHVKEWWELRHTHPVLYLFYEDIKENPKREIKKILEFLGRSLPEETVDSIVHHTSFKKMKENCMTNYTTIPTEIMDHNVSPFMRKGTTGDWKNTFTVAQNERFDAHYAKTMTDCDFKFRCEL

[2] = molecular target: T2, TALRca (Rhodobacter capsulatus, UniProt D5AR26); test: HPLC of p-coumaric and zosteric acid in culture of E. coli co-expressing TAL and SULT1A1; conditions: with or without 2 mM tyrosine; M9, 0.2% glucose, 24 h
T2 construct: gene hutH; co-expressed with rat SULT1A1 in E. coli BL21(DE3); whole growing cells
T2 sequence (D5AR26 1-531): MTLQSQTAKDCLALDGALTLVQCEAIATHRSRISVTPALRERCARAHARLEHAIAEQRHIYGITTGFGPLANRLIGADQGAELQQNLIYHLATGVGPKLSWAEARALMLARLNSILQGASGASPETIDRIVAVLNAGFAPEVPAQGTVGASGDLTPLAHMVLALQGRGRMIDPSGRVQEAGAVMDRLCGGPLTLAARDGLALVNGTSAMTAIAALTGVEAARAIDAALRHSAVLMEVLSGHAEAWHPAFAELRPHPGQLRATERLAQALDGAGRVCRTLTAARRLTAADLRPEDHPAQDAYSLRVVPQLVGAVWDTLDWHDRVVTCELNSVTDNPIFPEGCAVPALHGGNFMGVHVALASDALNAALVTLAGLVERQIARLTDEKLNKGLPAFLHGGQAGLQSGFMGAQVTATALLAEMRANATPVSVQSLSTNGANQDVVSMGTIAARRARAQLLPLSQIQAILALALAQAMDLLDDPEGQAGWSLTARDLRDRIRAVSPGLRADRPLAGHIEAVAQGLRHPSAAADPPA

[3] = molecular target: T3, TALRsp (Cereibacter sphaeroides, UniProt Q3IWB0); test: as above; conditions: with or without 2 mM tyrosine; M9, 0.2% glucose, 24 h
T3 construct: gene hutH; co-expressed with rat SULT1A1 in E. coli BL21(DE3); whole growing cells
T3 sequence (Q3IWB0 1-523): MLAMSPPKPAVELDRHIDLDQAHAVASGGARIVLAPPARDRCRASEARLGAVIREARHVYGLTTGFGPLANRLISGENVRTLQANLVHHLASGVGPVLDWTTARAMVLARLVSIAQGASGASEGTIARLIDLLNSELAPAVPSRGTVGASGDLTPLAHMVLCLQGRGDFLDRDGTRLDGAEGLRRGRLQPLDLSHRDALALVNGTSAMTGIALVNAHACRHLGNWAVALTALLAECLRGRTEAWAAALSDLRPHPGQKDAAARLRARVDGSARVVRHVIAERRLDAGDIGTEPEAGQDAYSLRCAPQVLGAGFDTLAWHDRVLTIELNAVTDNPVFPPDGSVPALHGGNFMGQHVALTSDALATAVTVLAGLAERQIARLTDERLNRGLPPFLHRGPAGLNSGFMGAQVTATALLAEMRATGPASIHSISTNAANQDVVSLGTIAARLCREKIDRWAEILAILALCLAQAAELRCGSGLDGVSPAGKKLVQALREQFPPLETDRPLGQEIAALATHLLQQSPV

[4] = molecular target: T4, TALFjo (Flavobacterium johnsoniae, UniProt A5FKY3); test: as above; conditions: with or without 2 mM tyrosine; M9, 0.2% glucose, 24 h
T4 construct: gene Fjoh_1109; co-expressed with rat SULT1A1 in E. coli BL21(DE3) (also in S. cerevisiae); whole growing cells
T4 sequence (A5FKY3 1-506): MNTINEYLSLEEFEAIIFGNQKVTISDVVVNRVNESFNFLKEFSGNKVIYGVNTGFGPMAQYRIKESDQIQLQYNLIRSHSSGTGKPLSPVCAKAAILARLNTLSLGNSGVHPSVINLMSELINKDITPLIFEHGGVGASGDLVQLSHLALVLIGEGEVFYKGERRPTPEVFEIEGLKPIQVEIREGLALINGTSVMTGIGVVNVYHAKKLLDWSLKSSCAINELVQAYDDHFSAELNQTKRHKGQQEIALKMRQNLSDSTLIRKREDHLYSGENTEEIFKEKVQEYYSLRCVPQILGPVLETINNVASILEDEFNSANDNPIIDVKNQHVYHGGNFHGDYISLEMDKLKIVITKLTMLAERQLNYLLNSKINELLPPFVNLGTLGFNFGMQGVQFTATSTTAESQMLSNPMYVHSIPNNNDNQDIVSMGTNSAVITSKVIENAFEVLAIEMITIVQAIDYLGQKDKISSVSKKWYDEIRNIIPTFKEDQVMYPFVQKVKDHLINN

Structure (SMILES)	HPLC of supernatant of E. coli expressing the enzyme; product zosteric acid matc [1]	HPLC of p-coumaric and zosteric acid in culture of E. coli co-expressing TAL and [2]	HPLC of p-coumaric and zosteric acid in culture of E. coli co-expressing TAL and [3]	HPLC of p-coumaric and zosteric acid in culture of E. coli co-expressing TAL and [4]
O=C(O)/C=C/c1ccc(O)cc1 [p-coumaric acid]	SULT1A1Rno showed the greatest production of zosteric acid from p-coumaric acid			
N[C@@H](Cc1ccc(O)cc1)C(=O)O [tyrosine]		expression of a TAL-encoding gene was required for the production of pHCA	expression of a TAL-encoding gene was required for the production of pHCA	expression of a TAL-encoding gene was required for the production of pHCA
